1 compound from paper PMC10951303, “Macroscopic inhibition of DNA damage repair pathways by targeting AP-2α with LEI110 eradicates hepatocellular carcinoma” (Communications Biology, 2024) can be followed below.

For the experiment, the target named is T1, AP-2α (TFAP2A) (Homo sapiens, UniProt P05549).
T1 construct: endogenous full-length protein in intact HEP3B cells; western blot read-out
Nature of the experiment: cellular thermal shift assay (CETSA), western blot. Format: cell-based. To be noted: HEP3B cells treated with LEI110 or DMSO for 1 h, then heated 3 min at increasing temperatures. (In general: Immunoblotting shows a protein as a band on a membrane.)

T1 sequence (P05549 whole entry): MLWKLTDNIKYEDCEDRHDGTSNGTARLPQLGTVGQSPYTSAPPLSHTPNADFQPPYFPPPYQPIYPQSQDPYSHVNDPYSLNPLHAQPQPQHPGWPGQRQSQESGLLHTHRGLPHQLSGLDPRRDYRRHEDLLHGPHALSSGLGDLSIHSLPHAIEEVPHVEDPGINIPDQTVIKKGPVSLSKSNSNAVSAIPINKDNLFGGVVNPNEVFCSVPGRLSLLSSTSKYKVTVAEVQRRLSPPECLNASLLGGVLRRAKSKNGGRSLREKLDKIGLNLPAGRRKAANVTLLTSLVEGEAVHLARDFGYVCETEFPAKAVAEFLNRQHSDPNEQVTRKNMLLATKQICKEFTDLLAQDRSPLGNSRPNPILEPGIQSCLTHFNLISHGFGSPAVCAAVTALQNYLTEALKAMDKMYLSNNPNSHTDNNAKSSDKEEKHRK

In the case of `O=C(CCCc1ccccc1)C(=O)NCCc1ccc(Oc2ccc(C(F)(F)F)cn2)cc1` [LEI110], the “cellular thermal shift assay (CETSA), western blot” value is listed as “the stabilization of AP-2α by LEI110 was observed in the CETSA”.
